Test results as given in patent publication US20240002405A1, “ANTIMICROBIAL COMPOUNDS, SYNTHESIS METHODS, AND USES THEREOF” (Ankh Life Sciences Limited, priority 2022, published 2024).
≈ marks a conversion by molar mass, not a printed value. Where “and” joins values, the source holds several entries; their conditions need not be identical. Equal values may be shown once. Read-outs that look alike come from different tables or passages of the source.

Experiments:
MRSA (ATCC 43300) = test: Minimum bactericidal concentration (MBC) assay, MRSA; type: cell-based; details: Staphylococcus aureus, MRSA
Method: (§1) (f) Determination of MBC: MBC was determined by sampling all the macroscopically clear wells. Before sampling, the wells were gently mixed by flushing them with a pipette, and a 5 μL was removed and placed on an agar plate suitable for the growth of the microbe being tested. The agar plate was divided into three parts to test three trials of a single concentration. The sample was allowed to be absorbed into the agar for ˜30 minutes. The plates were then incubated for 24 hours at 37° C. After incubation, the plates were examined to determine the compound concentration at which 99.9% killing was achieved.

E. coli (ATCC 25922) = test: Broth microdilution MIC assay, E. coli; details: E. coli
Method: (§2) The concentration of compound required to visibly stop the growth of bacteria is known as minimum inhibitory concentration (MIC). Different concentrations of the compounds are tested for the exact same number of bacteria, and the growth is monitored with time.
(§3) Bacterial strains were purchased from the American Type Culture Collection (ATCC) for the studies.
(§4) The MIC assay procedure follows the guidelines set by the Clinical Laboratory Sciences Institute (CLSI).
(§5) To do this, bacteria were transferred from pure agar culture, aseptically transferred in 5 mL of Cation-Adjusted Mueller-Hinton Broth (CAMHB). The broth was incubated overnight at 35° C. to stationary phase to achieve a turbidity suspension. A spectrophotometer (SpectraMax ID5) was used to measure the turbidity (optical density—OD at 625 nm). The inoculum was prepared by adjusting the turbidity of overnight culture to 0.5 McFarland, which is equal to the defined number of bacteria 1×10^8 CFU/ml.
(§6) (b) Compound Dilution: All compounds used in the study were dissolved in sterile ultra-pure DMSO (VWR International, PA, USA) and maintained at −80° C. Stock solution of the compound was freshly prepared the day of use or is prepared from a frozen stock solution stored at −80° C. […] The compound solution was prepared at a desired concentration in DMSO, and 1/10 dilution was performed in a sterile CAMHB medium. This 10-fold dilution of stock solution was used for a 2-fold serial dilution in a 96-well plate to observe an inhibitory effect of the compound on bacterial growth. 100 μL of diluted drug solution was transferred to a first column of the 96-well plate. 50 μL of sterile CAMHB was transferred to each well from well 2 to well 12. Next, 50 μL was removed from well 1 and added to well 2. The contents from well 2 were mixed by pipetting up and down. Next, 50 µL were removed from well 2 and added to well 3. This process was continued till well 11 is reached. 50 μL was discarded from the well 11. Each compound concentration was tested in triplicate.
(§7) (c) Inoculation of 96-well plate: The same number of bacteria (1×10^5 CFU/mL) were prepared after 150-fold dilution of 0.5 McFarland inoculum and used to add in the wells of different drug concentrations. 50 μL of working inoculum was carefully added to each well, except the sterility well 12. Mixing is performed by gently flushing the inoculum in and out of the pipette tip four or five times, avoiding splashing and bubble formation.
(§8) (d) Incubation: Plates were incubated at 35° C. for 24 hours without shaking or agitation.
(§9) (e) Determination of MIC: After 18-24 hours of incubation, the plates were read for MIC. SpectraMax iD5 microplate reader was used to measure turbidity at different time points. Turbidity (OD) increases as the bacteria grow over time.

VREF (ATCC 51299) = test: Minimum bactericidal concentration (MBC) assay, VREF; type: cell-based, Enterococcus faecalis; details: VREF; for MBC: Enterococcus faecalis, ATCC51299, read-out: MBC (bactericidal activity)
Method: as §1

[1] = system: VREF: E. faecalis resistant to vancomycin (ATCC 51299); test: Broth microdilution MIC assay, VREF; details: Enterococcus faecalis
Method: as §2, §3, §4, §5, §6, §7, §8, §9

S. aureus (ATCC 29213) [2] = test: Minimum bactericidal concentration (MBC) assay, S. aureus; type: cell-based; details: Staphylococcus aureus, S. aureus
Method: as §1

[3] = system: engineered Salmonella typhimurium strain (umuC, β-galactosidase); details: without S9 activation
Text: The EBPI UMU-ChromoTest™ assay is used for the detection and quantification of genotoxicity of compounds and is based on the International Organization for Standardization protocol ISO 13829. The UMU-ChromoTest™ assay utilizes a native bacterial mechanism for the detection of compound genotoxicity. The bacteria used for the assay is an engineered Salmonella typhimurium strain developed to include a gene coding for the β-galactosidase (β-gal) enzyme tethered to the umuC, a damage response gene. DNA damage activates the SOS system to transcribe β-gal proportional to the level of SOS induction. The UMU-ChromoTest™ bacterial strain has modifications to increase sensitivity to genotoxins with (a) increased sensitivity for even limited damage, (b) modified outer membrane of the cell to increase permeability to exogenous materials, and (c) production of a color change on addition to chromogenic substrate (ONPG), which is a quantitative measure of genotoxic damage to bacterial DNA.
Rehydration of Dried Bacteria and Culture Growth: The bacteria were rehydrated and incubated at 37° C. for 16-18 hours. OD600 of the overnight culture should be 0.5 or at least above 0.1 at 600 nm.
Sample Preparation and Plate Setup: The dimer compounds were dissolved in DMSO. All dilution and controls were made in the solvent of 10% DMSO in sterile 0.85% saline. The pH of the compounds was adjusted to 7.0±0.2 before incubation with bacteria to facilitate bacterial growth and prevent degradation of ONPG later in the assay. The solutions of hydrochloric acid and sodium hydroxide were used to adjust pH with minimal addition volumes to prevent excessive sample dilution. Six samples were run at 4 dilutions at a time.
Preliminary Dilution of Bacteria: The overnight bacterial culture was diluted to 50% by performing a reinoculation with 5 mL of overnight growth and 5 mL of fresh Growth media. The reinoculated bacteria was inoculated for 1.5 hours at 37° C. The OD600 should be approximately 80% of the reading from overnight growth or slightly higher.
Preparation of Plate A: Distilled water (180 μL) was added to all wells, except for rows A to F, columns 1 to 3 and row H, columns 1 to 6. Rows A to F are used for 6 compounds per plate. The test compounds (360 μL) were added to the first three wells (three replicates) of the same microplate, such that wells 1-3 were a triplicate set of the highest concertation of test compound (360 μL). Wells 4-12 each contained 180 μL of distilled water. For dilution, half of the contents (180 μL) from wells 1-3 was transferred to wells 4-6 which makes a second triplicate set. For a third dilution, half of the contents from wells 4-6 were transferred to 7-9, and for the fourth triplicate set, half of the contents from wells 7-9 was transferred to 10-12. […]

[4] = system: P. aeruginosa (ATCC 10145); test: Broth microdilution MIC assay, P. aeruginosa
Method: as §2, §3, §4, §5
(b) Compound Dilution: All compounds used in the study were dissolved in sterile ultra-pure DMSO (VWR International, PA, USA) and maintained at −80° C. […]
(e) Determination of MIC: After 18-24 hours of incubation, the plates were read for MIC. SpectraMax iD5 microplate reader was used to measure turbidity at different time points. […]

E. faecalis (ATCC 29212) [5] = test: Minimum bactericidal concentration (MBC) assay, E. faecalis; type: cell-based, Enterococcus faecalis; details: for MBC: Enterococcus faecalis, ATCC29212
Method: as §1

Solubility in DMSO = type: physicochemical
[6] = system: MRSA: S. aureus resistant to methicillin and oxacillin (ATCC 43300); test: Broth microdilution MIC assay, MRSA; details: Staphylococcus aureus, ATCC43300|MRSA, read-out: MIC (bacterial growth inhibition)
Method: as §2, §3, §4, §5, §6, §7, §8, §9

[7] = system: gram positive and negative bacteria; test: Antibacterial testing against gram positive and negative bacteria; type: cell-based
Method: In addition to the harmaline dimers compounds, other bicyclic indole compounds (203, 233, 476/6 and 504/6,) were also tested against gram positive and negative bacteria. Particularly, the indole ethyl urea molecules 203, 233 and the tryptamide dimer molecules 476/6, 504/6, as shown below, were tested.

E. faecalis (ATCC 29212) [8] = test: Broth microdilution MIC assay, E. faecalis; details: Enterococcus faecalis, ATCC29212, read-out: MIC (bacterial growth inhibition)
Method: as §2, §3, §4, §5, §6, §7, §8, §9

S. aureus (ATCC 29213) [9] = test: Broth microdilution MIC assay, S. aureus; details: for MIC: Staphylococcus aureus, ATCC29213, read-out: MIC (bacterial growth inhibition), S. aureus; for higher efficacy than harmaline: antibacterial efficacy versus harmaline; for higher antibacterial activity than harmaline dimer without a substitution (GZ440/6): versus GZ440/6
Method: as §2, §3, §4, §5, §6, §7, §8, §9

SARS-CoV-2 = test: RT-PCR quantitation of viral copy number; type: cell-based; details: 120 hours after infection
[10] = system: SARS-CoV-2 isolate USA-WA1/2020 in Vero-E6 cells; test: Virus plaque formation assay; type: cell-based
Vero-E6 cells = test: CytoTox 96 Nonradioactive Cytotoxicity Assay (LDH release)
Method: Cytotoxicity was measured using Promega™ CytoTox 96™ Nonradioactive Cytotoxicity Assay (cat #G1780, Promega, Madison, WI, USA).
Cytotoxicity was measured using the Promega™ CytoTox 96™ Nonradioactive Cytotoxicity Assay kit (cat #G1780, Promega, Madison, WI, USA) in 50 μL reactions and 96-well format (cat #161093, Thermo Fisher Scientific, Waltham, MA, USA) according to the manufacturer's protocol, except we used 20 μL of 10× Lysis Solution per 100 μL of sample and incubated at 37° C. for 30 minutes to generate the maximum LDH release control. The assay was measured using a BioTeK Synergy™ HT plate reader (model #7091000, BioTek, Winooski, VT, USA) at an optical density of 490 nm (OD490). […] LLC-MK2 cells were assessed for cytotoxicity at 5 days, whereas Vero E6 and Calu-3 cells were assessed for cytotoxicity every 24 hours from 1-5 days. Percent cytotoxicity was calculated by dividing the experimental LDH release at OD490 b.

[11] = ATCC51299, 24 h, read-out: MIC (bacterial growth inhibition)
[12] = ATCC51299, 48 h, read-out: MIC (bacterial growth inhibition)
[13] = ATCC51299, read-out: MIC (bacterial growth inhibition)
[14] = ATCC29213, 24 h, read-out: MBC (kills bacteria)
[15] = ATCC29213, read-out: MBC (bactericidal activity)

SMILES | MBC (MRSA (ATCC 43300); read-out: MBC) [µg/mL] | MBC (MRSA (ATCC 43300); read-out: MRSA-MBC) [µM] | MIC (bacterial growth inhibition) (E. coli (ATCC 25922)) | MBC (VREF (ATCC 51299)) [µg/mL] | MIC [1, 11] [µg/mL] | MIC [1, 12] [µg/mL] | MIC [1, 13] [µg/mL] | MBC (S. aureus (ATCC 29213) [2]; [14]) [µg/mL] | MBC (S. aureus (ATCC 29213) [2]; [15]) [µM] | MIC (bacterial growth inhibition) [4] | MBC (kills bacteria) (E. faecalis (ATCC 29212) [5]) [µg/mL] | MBC (E. faecalis (ATCC 29212) [5]) [µM] | solubility in DMSO (time to dissolve) (Solubility in DMSO) [min] | MIC ([6]; 24 h) [µg/mL] | MIC ([6]; 90 h) [µg/mL] | bacteriostatic/bactericidal activity [7] | MIC (E. faecalis (ATCC 29212) [8]) | MIC (S. aureus (ATCC 29213) [9]; time not given) [µg/mL] | higher efficacy than harmaline (S. aureus (ATCC 29213) [9]) [fold] | higher antibacterial activity than harmaline dimer without a substitution (GZ440/6) (S. aureus (ATCC 29213) [9]) [fold] | further results
COc1ccc2c3c([nH]c2c1)C(CC(CC1=NCCc2c1[nH]c1cc(OC)ccc21)c1c[nH]cn1)=NCC3 [1,1′-(2-(1H-imidazol-4-yl)propane-1,3-diyl)bis(7-methoxy-4,9-dihydro-3Hpyrido[3,4-b]indole)] | 63.3 | 125 | no inhibition was observed | > 127 | 63.3 (≈ 125 µM) | 127 (≈ 250 µM) | > 127 | 101 | 200 | no inhibition was observed | 101.2 (≈ 200 µM) | 200 (≈ 101 µg/mL) | 30 to 40 | 15.8 (≈ 31.2 µM) | 31.7 (≈ 62.5 µM) | show bacteriostatic and bactericidal activity | 50.6 µg/mL (≈ 99.9 µM) | 50.6 | ~15 | 1.75 | genotoxic concentration (not genotoxic up to / toxicity above) [3]: above 85 μM
COc1ccc2c3c([nH]c2c1)C(CC(CC1=NCCc2c1[nH]c1cc(OC)ccc21)c1cccnc1)=NCC3 [GK517.3, 1,1′-(2-(pyridin-3-yl)propane-1,3-diyl)bis(7-methoxy-4,9-dihydro-3H-pyrido[3,4-b]indole)] | 32.4 | 62.5 | no inhibition was observed | 64.7 (≈ 125 µM) | 32.4 (≈ 62.5 µM) | – | – | 104 | 200 | no inhibition was observed | 103.5 (≈ 200 µM) | 200 (≈ 104 µg/mL) | 10 to 15 | 8 (≈ 15.5 µM) | 16.2 (≈ 31.3 µM) | show bacteriostatic and bactericidal activity | 51.7 µg/mL (≈ 99.9 µM) | 51.7 | ~15 | 1.75 | MIC ([1]; ATCC51299, 90 h, read-out: MIC (bacterial growth inhibition)): 64.7 µg/mL (≈ 125 µM)
COc1ccc2c3c([nH]c2c1)C(CCCC1=NCCc2c1[nH]c1cc(OC)ccc21)=NCC3 [GZ440/6] | 110 | 250 | – | – | 55 (≈ 125 µM) | 110 (≈ 250 µM) | > 110 | – | – | – | – | – | – | 27.5 (≈ 62.5 µM) | 55 (≈ 125 µM) | show bacteriostatic and bactericidal activity | 88 µg/mL and 200 µM | 88 | – | – | viral load (viral RNA levels) (SARS-CoV-2; higher concentrations (20 and 40 μM)): decreased viral load; viral load (viral RNA levels) (SARS-CoV-2; lower concentrations): not in lower concentrations; MBC (bactericidal activity) (VREF (ATCC 51299)): No bactericidal action was observed; inhibition of plaque formation ([10]; 2.0, 5.0 and 10.0 μM, CoV-2 in Vero-E6 cells at 120 h after infection): negligible inhibition; inhibition of plaque formation ([10]; at 20 μM and above): inhibition of plaque formation was significant; MIC (S. aureus (ATCC 29213) [9]): 200 µM; cytotoxicity (Vero-E6 cells; 20 μM and 40 μM): no significant cytotoxicity; cytotoxicity (Vero-E6 cells; Vero-E6 cells, 2.0 μM, 5.0 μM and 10.0 μM): negligible cytotoxicity
